Where two headings read alike, the source gives them in different places.
Key:
[1] = tested on: CYP2B6 + RAD54 system (CPR-CYP2B6 and RAD54-GFP constructs)
in vitro = details: Saccharomyces cerevisiae
[2] = tested on: RAD54 system (only the RAD54-GFP construct)
[3] = tested on: CYP3A4 + RAD54 system (CPR-CYP3A4 and RAD54-GFP constructs)
[4] = tested on: CYP2D6 + RAD54 system (CPR-CYP2D6 and RAD54-GFP constructs)
[5] = tested on: NCs system (control pESC-URA and pUMGP5 plasmids)
[6] = tested on: RAD54-GFP integrant + CYP1A2; details: cited from earlier work
[7] = tested on: RAD54-GFP integrant + CYP3A4; details: cited from earlier work
RAD54-GFP integrant = details: concentration 1.02–33 μg/mL; ref Walsh et al. 2005 [30]; cited from earlier work
CYP2B6 [8] = target: T1, CYP2B6 (Homo sapiens, UniProt P20813); details: 2B6+ clone microsomes; nonlinear regression
T1 sequence (P20813 whole entry): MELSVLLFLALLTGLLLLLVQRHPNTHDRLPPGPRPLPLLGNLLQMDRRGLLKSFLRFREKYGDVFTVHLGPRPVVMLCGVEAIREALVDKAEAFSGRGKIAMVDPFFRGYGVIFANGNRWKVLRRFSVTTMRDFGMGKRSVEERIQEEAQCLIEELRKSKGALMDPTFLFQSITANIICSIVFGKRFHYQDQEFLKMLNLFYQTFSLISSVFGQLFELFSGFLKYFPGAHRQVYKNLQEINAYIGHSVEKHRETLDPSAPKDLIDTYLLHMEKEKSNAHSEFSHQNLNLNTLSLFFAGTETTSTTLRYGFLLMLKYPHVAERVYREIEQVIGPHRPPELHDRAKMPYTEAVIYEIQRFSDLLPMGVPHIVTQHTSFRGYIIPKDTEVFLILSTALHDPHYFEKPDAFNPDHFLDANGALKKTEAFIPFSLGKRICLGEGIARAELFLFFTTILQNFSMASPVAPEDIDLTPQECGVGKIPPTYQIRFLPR

CYP3A4 = test: in vitro; details: human, pH 7.4, Km, 3A4+ clone microsomes; nonlinear regression; substrate 1–100 μM, 37°C
recombinant human CYP2D6 = recombinant human CYP2D6 (Homo sapiens, UniProt P10635); test: CYP activity assay, deethylation of fluorogenic substrate by microsomes of 2D6+ clone; details: 2D6+ clone microsomes, nonlinear regression
recombinant human CYP3A4 = details: 3A4+ clone microsomes; nonlinear regression
CYP2B6 [9] = target: T1, CYP2B6; test: in vitro; details: pH 7.4, Km, 2B6+ clone microsomes, nonlinear regression, substrate 1–100 μM, 37°C
[10] = substrate: CCOc1ccc2cc(C#N)c(=O)oc2c1; test: cells, lysate or membranes named; details: other: 2D6+ clone microsomes, nonlinear regression, substrate 1–100 μM, 37°C
[11] = concentration 1.02–33 μg/mL, ref Walsh et al. 2005 [30]

Molecule: c1ccc2c(c1)cc1ccc3cccc4ccc2c1c34 [Benzo(a)pyrene, benzo(a)pyrene]
- GFP fold induction signal, CYP2B6 + RAD54 ([1]; 10 μM, 16 h at 30°C): – (Negative (≤1.3 GFP fold induction),–)
- GFP fold induction signal, CYP2B6 + RAD54 ([1]; 20 μM, 16 h at 30°C): – (Negative (≤1.3 GFP fold induction),–)
- GFP fold induction signal, CYP2B6 + RAD54 ([1]; 40 μM, 16 h at 30°C): – (Negative (≤1.3 GFP fold induction),–)
- fold induction (in vitro): ≤ 1.3
- GFP fold induction signal, RAD54 ([2]; 10 μM, 16 h at 30°C): – (Negative (≤1.3 GFP fold induction),–)
- GFP fold induction signal, RAD54 ([2]; 20 μM, 16 h at 30°C): – (Negative (≤1.3 GFP fold induction),–)
- GFP fold induction signal, RAD54 ([2]; 40 μM, 16 h at 30°C): – (Negative (≤1.3 GFP fold induction),–)
- Genotoxicity result, present study, CYP3A4 + RAD54 [3]: +
- GFP fold induction signal, CYP3A4 + RAD54 ([3]; 10 μM, 16 h at 30°C): + (positive (>1.3 GFP fold induction), + (1.3, 2])
- GFP fold induction signal, CYP3A4 + RAD54 ([3]; 20 μM, 16 h at 30°C): + (positive (>1.3 GFP fold induction), + (1.3, 2])
- GFP fold induction signal, CYP3A4 + RAD54 ([3]; 40 μM, 16 h at 30°C): ++ (++ (2, 3])
- GFP fold induction signal, CYP2D6 + RAD54 ([4]; 10 μM, 16 h at 30°C): – (Negative (≤1.3 GFP fold induction),–)
- GFP fold induction signal, CYP2D6 + RAD54 ([4]; 20 μM, 16 h at 30°C): – (Negative (≤1.3 GFP fold induction),–)
- GFP fold induction signal, CYP2D6 + RAD54 ([4]; 40 μM, 16 h at 30°C): – (Negative (≤1.3 GFP fold induction),–)
- GFP fold induction signal, NCs ([5]; 10 μM, 16 h at 30°C): – (Negative (≤1.3 GFP fold induction),–)
- GFP fold induction signal, NCs ([5]; 20 μM, 16 h at 30°C): – (Negative (≤1.3 GFP fold induction),–)
- GFP fold induction signal, NCs ([5]; 40 μM, 16 h at 30°C): – (Negative (≤1.3 GFP fold induction),–)

Molecule: COS(C)(=O)=O [Methyl methanesulfonate, methyl methanesulfonate]
- GFP fold induction signal, CYP2B6 + RAD54 ([1]; 25 μM, 16 h at 30°C): + (positive (>1.3 GFP fold induction), + (1.3, 2])
- GFP fold induction signal, CYP2B6 + RAD54 ([1]; 50 μM, 16 h at 30°C): +++ (+++ (3, 4])
- GFP fold induction signal, CYP2B6 + RAD54 ([1]; 100 μM, 16 h at 30°C): ++++ (++++ (4, ∞])
- Genotoxicity result, present study, CYP2B6 + RAD54 ([1]; concentration 2.75–11.01 μg/mL): +
- GFP fold induction signal, RAD54 ([2]; 25 μM, 16 h at 30°C): + (positive (>1.3 GFP fold induction), + (1.3, 2])
- GFP fold induction signal, RAD54 ([2]; 50 μM, 16 h at 30°C): +++ (+++ (3, 4])
- GFP fold induction signal, RAD54 ([2]; 100 μM, 16 h at 30°C): ++++ (++++ (4, ∞])
- Genotoxicity result, present study, RAD54 ([2]; concentration 2.75–11.01 μg/mL): +
- GFP fold induction signal, CYP3A4 + RAD54 ([3]; 25 μM, 16 h at 30°C): + (positive (>1.3 GFP fold induction), + (1.3, 2])
- GFP fold induction signal, CYP3A4 + RAD54 ([3]; 50 μM, 16 h at 30°C): +++ (+++ (3, 4])
- GFP fold induction signal, CYP3A4 + RAD54 ([3]; 100 μM, 16 h at 30°C): ++++ (++++ (4, ∞])
- Genotoxicity result, present study, CYP3A4 + RAD54 ([3]; concentration 2.75–11.01 μg/mL): +
- Genotoxicity result, published report, RAD54-GFP integrant + CYP1A2 [6, 11]: +
- Genotoxicity result, published report, RAD54-GFP integrant + CYP3A4 [7, 11]: +
- Genotoxicity result, published report, RAD54-GFP integrant (RAD54-GFP integrant): +
- GFP fold induction signal, CYP2D6 + RAD54 ([4]; 25 μM, 16 h at 30°C): + (positive (>1.3 GFP fold induction), + (1.3, 2])
- GFP fold induction signal, CYP2D6 + RAD54 ([4]; 50 μM, 16 h at 30°C): +++ (+++ (3, 4])
- GFP fold induction signal, CYP2D6 + RAD54 ([4]; 100 μM, 16 h at 30°C): ++++ (++++ (4, ∞])
- Genotoxicity result, present study, CYP2D6 + RAD54 ([4]; concentration 2.75–11.01 μg/mL): +
- GFP fold induction signal, NCs ([5]; 25 μM, 16 h at 30°C): – (Negative (≤1.3 GFP fold induction),–)
- GFP fold induction signal, NCs ([5]; 50 μM, 16 h at 30°C): – (Negative (≤1.3 GFP fold induction),–)
- GFP fold induction signal, NCs ([5]; 100 μM, 16 h at 30°C): – (Negative (≤1.3 GFP fold induction),–)

Molecule: N-nitrosodimethylamine
- Genotoxicity result, present study, CYP2B6 + RAD54 [1]: +
- GFP fold induction [2]: ≤ 1.3
- GFP fold induction signal, RAD54 [2]: – (key: Negative (≤1.3 GFP fold induction),–; positive (>1.3 GFP fold induction), + (1.3, 2]; ++ (2, 3]; +++ (3, 4]; ++++ (4, ∞])
- GFP fold induction signal, CYP3A4 + RAD54 [3]: – (key: Negative (≤1.3 GFP fold induction),–; positive (>1.3 GFP fold induction), + (1.3, 2]; ++ (2, 3]; +++ (3, 4]; ++++ (4, ∞])
- Genotoxicity result, published report, RAD54-GFP integrant + CYP3A4 [7]: +
- GFP fold induction signal, CYP2D6 + RAD54 [4]: – (key: Negative (≤1.3 GFP fold induction),–; positive (>1.3 GFP fold induction), + (1.3, 2]; ++ (2, 3]; +++ (3, 4]; ++++ (4, ∞])
- GFP fold induction signal, NCs [5]: – (key: Negative (≤1.3 GFP fold induction),–; positive (>1.3 GFP fold induction), + (1.3, 2]; ++ (2, 3]; +++ (3, 4]; ++++ (4, ∞])

Molecule: CCOc1ccc2cc(C#N)c(=O)oc2c1 [7-ethoxycoumarin-3-carbonitrile]
- Vmax (CYP2B6 [8]): 2.7 pmol/pmol CYP/min
- Km (CYP3A4): 3.5 µM
- Vmax (recombinant human CYP2D6): ~ 4.7 pmol/pmol CYP/min
- Km (recombinant human CYP2D6; substrate 1–100 μM, 37°C): ~2.1 µM
- Vmax (recombinant human CYP3A4): 3.2 pmol/pmol CYP/min
- Km (CYP2B6 [9]): 3.7 µM

Molecule: aflatoxin B1
- Genotoxicity result, present study, CYP2B6 + RAD54 [1]: +
- GFP fold induction signal, CYP2B6 + RAD54 ([1]; 0.1 µM): – (key: Negative (≤1.3 GFP fold induction),–; positive (>1.3 GFP fold induction), + (1.3, 2]; ++ (2, 3]; +++ (3, 4]; ++++ (4, ∞])
- GFP fold induction signal, CYP2B6 + RAD54 ([1]; 0.2 µM): – (key: Negative (≤1.3 GFP fold induction),–; positive (>1.3 GFP fold induction), + (1.3, 2]; ++ (2, 3]; +++ (3, 4]; ++++ (4, ∞])
- GFP fold induction signal, CYP2B6 + RAD54 ([1]; 0.4 µM): + (key: Negative (≤1.3 GFP fold induction),–; positive (>1.3 GFP fold induction), + (1.3, 2]; ++ (2, 3]; +++ (3, 4]; ++++ (4, ∞])
- GFP fold induction [2]: ≤ 1.3
- GFP fold induction signal, RAD54 ([2]; 0.1 µM): – (key: Negative (≤1.3 GFP fold induction),–; positive (>1.3 GFP fold induction), + (1.3, 2]; ++ (2, 3]; +++ (3, 4]; ++++ (4, ∞])
- GFP fold induction signal, RAD54 ([2]; 0.2 µM): – (key: Negative (≤1.3 GFP fold induction),–; positive (>1.3 GFP fold induction), + (1.3, 2]; ++ (2, 3]; +++ (3, 4]; ++++ (4, ∞])
- GFP fold induction signal, RAD54 ([2]; 0.4 µM): – (key: Negative (≤1.3 GFP fold induction),–; positive (>1.3 GFP fold induction), + (1.3, 2]; ++ (2, 3]; +++ (3, 4]; ++++ (4, ∞])
- Genotoxicity result, present study, CYP3A4 + RAD54 [3]: +
- GFP fold induction signal, CYP3A4 + RAD54 ([3]; 0.1 µM): + (key: Negative (≤1.3 GFP fold induction),–; positive (>1.3 GFP fold induction), + (1.3, 2]; ++ (2, 3]; +++ (3, 4]; ++++ (4, ∞])
- GFP fold induction signal, CYP3A4 + RAD54 ([3]; 0.2 µM): ++ (key: Negative (≤1.3 GFP fold induction),–; positive (>1.3 GFP fold induction), + (1.3, 2]; ++ (2, 3]; +++ (3, 4]; ++++ (4, ∞])
- GFP fold induction signal, CYP3A4 + RAD54 ([3]; 0.4 µM): ++ (key: Negative (≤1.3 GFP fold induction),–; positive (>1.3 GFP fold induction), + (1.3, 2]; ++ (2, 3]; +++ (3, 4]; ++++ (4, ∞])
- Genotoxicity result, published report, RAD54-GFP integrant + CYP1A2 [6]: +
- GFP fold induction signal, CYP2D6 + RAD54 ([4]; 0.1 µM): – (key: Negative (≤1.3 GFP fold induction),–; positive (>1.3 GFP fold induction), + (1.3, 2]; ++ (2, 3]; +++ (3, 4]; ++++ (4, ∞])
- GFP fold induction signal, CYP2D6 + RAD54 ([4]; 0.2 µM): – (key: Negative (≤1.3 GFP fold induction),–; positive (>1.3 GFP fold induction), + (1.3, 2]; ++ (2, 3]; +++ (3, 4]; ++++ (4, ∞])
- GFP fold induction signal, CYP2D6 + RAD54 ([4]; 0.4 µM): – (key: Negative (≤1.3 GFP fold induction),–; positive (>1.3 GFP fold induction), + (1.3, 2]; ++ (2, 3]; +++ (3, 4]; ++++ (4, ∞])
- GFP fold induction signal, NCs ([5]; 0.1 µM): – (key: Negative (≤1.3 GFP fold induction),–; positive (>1.3 GFP fold induction), + (1.3, 2]; ++ (2, 3]; +++ (3, 4]; ++++ (4, ∞])
- GFP fold induction signal, NCs ([5]; 0.2 µM): – (key: Negative (≤1.3 GFP fold induction),–; positive (>1.3 GFP fold induction), + (1.3, 2]; ++ (2, 3]; +++ (3, 4]; ++++ (4, ∞])
- GFP fold induction signal, NCs ([5]; 0.4 µM): – (key: Negative (≤1.3 GFP fold induction),–; positive (>1.3 GFP fold induction), + (1.3, 2]; ++ (2, 3]; +++ (3, 4]; ++++ (4, ∞])

B1: recombinant human CYP2D6 (Homo sapiens) (protein)
chain: MGLEALVPLAVIVAIFLLLVDLMHRRQRWAARYPPGPLPLPGLGNLLHVDFQNTPYCFDQLRRRFGDVFSLQLAWTPVVVLNGLAAVREALVTHGEDTADRPPVPITQILGFGPRSQGVFLARYGPAWREQRRFSVSTLRNLGLGKKSLEQWVTEEAACLCAAFANHSGRPFRPNGLLDKAVSNVIASLTCGRRFEYDDPRFLRLLDLAQEGLKEESGFLREVLNAVPVLLHIPALAGKVLRFQKAFLTQLDELLTEHRMTWDPAQPPRDLTEAFLAEMEKAKGNPESSFNDENLRIVVADLFSAGMVTTSTTLAWGLLLMILHPDVQRRVQQEIDDVIGQVRRPEMGDQAHMPYTTAVIHEVQRFGDIVPLGVTHMTSRDIEVQGFRIPKGTTLITNLSSVLKDEAVWEKPFRFHPEHFLDAQGHFVKPEAFLPFSAGRRACLGEPLARMELFLFFTSLLQHFSFSVPTGQPRPSHHGVFAFLVSPSPYELCAVPR
- Km [10]: 2.1 µM
- kcat [10]: 4.7 pmol/pmol CYP/min
- kcat/Km [10]: 2.2 μL/pmol CYP/min
